Data taken from patent EP3723745B1, “PHENOXY ACIDS FOR THE TREATMENT OF NEUROMUSCULAR DISORDERS” (NMD Pharma A/S, priority 2017, dated 2019).

Experiments:
female Lewis rats = test: Measurement of in situ muscle contractile characteristics (isometric hindlimb force, cisatracurium block); format: in vivo, rat; conditions: for average increase in twitch peaks: 12 Hz; for average increase in twitch peaks / average increase in tetanic force: cisatracurium infusion; for average increase in tetanic force: 80 Hz; for restore force to muscles in vivo: muscles partially inhibited by a neuromuscular blocker, summary in words
Protocol: Isometric hindlimb force was measured in 12-week old female Lewis rats in the presence and absence of compound.
Rats were placed under anesthesia with isoflurane (2-4%), intubated and subsequently connected to a micro ventilator (Microvent 1, Hallowell EMC, US). Two stimulation electrodes were inserted through the skin to stimulate the sciatic nerve. A small incision was made proximal to the ankle, to expose the Achilles tendon, which was tied by cotton string, and connected to a force transducer (Fort250, World Precision Instruments) with adjustable position (Vernier control). The Achilles tendon was then cut distal to the attached cotton string. The rat was placed on a heated pad, and to prevent movement artefacts from contraction of the ankle dorsiflexors, the foot was fixated by tape on a footplate.
Muscle contractile properties were assessed by applying an electrical current (under supramaximal voltage conditions) to the nerve and recording the force generated by the muscle. The muscle was stretched until maximal force was obtained, when assessed by 2 Hz stimulation. Isometric force was measured every 30 seconds at 12 Hz (Twitch), 10 pulses, and at every 5 minutes at 80 Hz (Tetanic) for 1 second (80 pulses). This stimulation pattern was employed throughout the experiment, expect in few cases where 80 Hz stimulation was replaced by 12 Hz (10 pulses). […] When the level of neuromuscular inhibition was stable, the test article was injected i.v. at the chosen concentration. The effect of test article was assessed on its ability to increase force generated from the stimulation pattern applied. The effect was assessed in the ability to increase force per se (tetanic, 80 Hz, stimulation), and the ratio between individual twitch peaks (12 Hz stimulation). The effect was monitored for at least 1 hour after injection of test article. In addition, the time from injection of test article to maximal effect on force (both twitch and tetanic) was noted and the time for the effect to disappear (return to baseline), if possible. When appropriate the infusion of neuromuscular blocking agent was ceased, with the stimulation pattern continued, and the return of force to control levels was monitored. Animals were sacrificed by cervical dislocation while still fully sedated.

soleus muscles = test: Measurement of force in an in vitro model: isolated rat nerve-muscle preparation with tubocurarine; conditions: Rattus norvegicus, 40 min; percentage of initial force restored after 40 mins with 50 µM test compound; tubocurarine (115 nM) for 90 mins; read-out: Point increase
Protocol: Recovery of force is quantified as the percentage of the force prior to tubocurarine that is recovered by the compound.
The current invention relates to compounds that inhibit CIC-1 ion channels and increase muscle excitability and thereby improve muscle function in clinical conditions where muscle activation is failing. Such conditions result in loss of contractile function of skeletal muscle, weakness and excessive fatigue. In this series of experiments the compounds were tested for their ability to restore contractile function of isolated rat muscle when the neuromuscular transmission had been compromised akin to neuromuscular disorders.
Experimentally, soleus muscles from 4-5 wk old rats were isolated with the motor nerve remaining attached. The nerve-muscle preparations were mounted in experimental setups that enabled electrical stimulation of the motor nerve. Stimulation of the motor nerve led to activation of the muscle fibres and ensuing force production that was recorded.
After mounting the nerve-muscle preparation in the experimental setup, the contractile function of the muscle was initially assessed under the control conditions (Figure 2A). […] The experimental condition mimics the failing neuromuscular transmission in a range of neuromuscular disorders. After addition of tubocurarine the contractile force declined over the next 90 mins to 10-50 % of the control force. 50 µM of the test compound was then added and the contractile force recovered despite the continued presence of tubocurarine. To quantify the ability of the compound to restore force the percentage of the initial force that was restored was determined after 40 mins of compound exposure (Figure 2B) and the point increase is reported in Table 3. Table 3: Percentage increase of initial force that was restored using compounds of the invention

human CIC-1 channels = target: T1, human CIC-1 channels (Homo sapiens, UniProt P35523); test: Automated patch-clamp on human CIC-1 expressed in CHO cells; format: cell-based; conditions: difference in half activation voltage, compound added intracellularly vs control cell patches; positive shift = CIC-1 inhibition
T1 construct: host or cells: CHO cells constitutively expressing human ClC-1
Protocol: The investigatory goal of these experiments was to evaluate how compounds affect the open probability and current amplitude of human CIC-1 channels expressed in CHO cells. Experiments were performed using an automated patch clamp system that allowed high throughput testing of whole cell patches together with both intracellular and extracellular addition of compound.
Automated whole cell patch clamp experiments were performed with the Qpatch 16 system (Sophion Bioscience, Ballerup, Denmark) at room temperature. Data acquisition and analysis were performed in the Qassay software (ver. 5.6, Odense).
To evoke CIC-1 currents in whole cell patches, the membrane potential was initially stepped from a holding potential of -30 mV to +60 mV for 100 ms and then to various test voltages (sweeps) ranging from +120 mV to -140 mV in steps of 20 mV for 300 ms. To obtain tail currents, the membrane potential was stepped to -100 mV after each test voltage for 300 ms and then relaxed to -30 mV for 2 sec between sweeps (Figure 3). I/V relationships for whole cell instant and steady state current amplitudes were obtained by plotting average current densities at the beginning and at the end of the 300 ms step against the membrane potential (Figure 4).
In order to determine the relative overall open probability (P0), the instantaneous tail currents were normalized to the maximal tail current obtained following the most positive voltage step and plotted against the test voltage. Plots of normalized tail currents from each whole cell patch were then fitted to a Boltzmann function allowing determination of half activation voltages (V1/2, Figure 5).
For automated patch clamp experiments extracellular solutions contained: 2 mM CaCl2, 1 mM MgCl2, 10 mM HEPES, 4 mM KCI, 145 mM NaCl, 10 mM Glucose, pH adjusted to 7.4 with NaOH (2 M). Osmolality adjusted to -320 using sucrose.
Intracellular solutions contained: 80 mM CsF, 60 mM CsCI, 5/1 mM KOH/EGTA, 10 mM HEPES, 10 mM NaCl, pH adjusted to 7.2 with NaOH (2 M). Osmolality adjusted to -320 mOsm using sucrose.
Cells used in patch clamp experiments were Chinese hamster ovary cells (CHO) constitutively expressing human CIC-1 channels. The amino acid sequence encoded by the cDNA used to create this cell line was identical to the translated sequence for GenBank accession number NM_000083.2. Cells were produced by Charles River (Catalogue CT6175, Cleveland OH, USA) in a cryopreserved format. Experiments were performed on the cells directly after thawing (3 × 10^6 cells used in each experiment).
To evaluate the compound effect on CIC-1, when applied directly to the intracellular side of the cell membrane, the half activation voltage, V1/2, was determined from whole cell patches with compound added to the intracellular solution and then compared to V1/2 determined from control cell patches with only vehicle added to the intracellular solution. Additionally, the effect of extracellular added compound was evaluated by determine V1/2 and steady state current amplitudes before and after exchanging the extracellular solution to contain compound.
The difference in half activation voltage of CIC-1 channels, ΔV1/2, was determined as the difference between the cell patches treated intracellularly with compound and control cells patches and is reported in Table 4 below. A positive shift in ΔV1/2 is reflecting CIC-1 channel inhibition by the tested compound. P-values of <0.05 is considered significant. […]

T1 sequence (P35523 whole entry): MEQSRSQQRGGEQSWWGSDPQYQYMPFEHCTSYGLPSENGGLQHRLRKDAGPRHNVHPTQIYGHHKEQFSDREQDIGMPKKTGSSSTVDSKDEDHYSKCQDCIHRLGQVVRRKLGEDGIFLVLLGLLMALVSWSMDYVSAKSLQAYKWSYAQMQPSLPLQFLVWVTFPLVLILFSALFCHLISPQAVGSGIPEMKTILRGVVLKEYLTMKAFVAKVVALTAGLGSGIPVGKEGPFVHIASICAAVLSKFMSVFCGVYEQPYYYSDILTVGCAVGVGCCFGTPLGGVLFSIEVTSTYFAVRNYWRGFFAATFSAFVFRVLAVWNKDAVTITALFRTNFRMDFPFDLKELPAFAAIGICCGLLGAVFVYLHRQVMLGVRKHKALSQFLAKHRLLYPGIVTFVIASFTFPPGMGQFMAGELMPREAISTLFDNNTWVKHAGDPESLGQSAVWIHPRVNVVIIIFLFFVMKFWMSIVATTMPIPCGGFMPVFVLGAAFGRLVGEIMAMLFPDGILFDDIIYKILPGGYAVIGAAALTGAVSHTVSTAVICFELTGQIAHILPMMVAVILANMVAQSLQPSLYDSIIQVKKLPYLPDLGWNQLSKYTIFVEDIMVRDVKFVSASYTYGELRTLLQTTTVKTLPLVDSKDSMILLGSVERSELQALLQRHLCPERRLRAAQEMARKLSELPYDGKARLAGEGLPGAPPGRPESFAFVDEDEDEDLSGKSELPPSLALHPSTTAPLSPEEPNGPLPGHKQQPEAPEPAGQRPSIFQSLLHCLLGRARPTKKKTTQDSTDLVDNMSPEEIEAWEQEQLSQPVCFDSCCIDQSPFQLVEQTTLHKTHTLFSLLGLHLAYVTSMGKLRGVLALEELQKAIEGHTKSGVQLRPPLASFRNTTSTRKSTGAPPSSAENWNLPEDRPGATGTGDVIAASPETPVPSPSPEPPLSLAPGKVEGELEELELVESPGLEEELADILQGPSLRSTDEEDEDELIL

Row | Compound | average increase in twitch peaks (female Lewis rats; 40 mg/kg i.v.) | average increase in tetanic force (female Lewis rats; 40 mg/kg i.v.) | restore force to muscles in vivo (female Lewis rats) | activation at 50 µM (soleus muscles) | ΔV1/2 (human CIC-1 channels) | average increase in twitch peaks (female Lewis rats; 20 mg/kg i.v.) | average increase in tetanic force (female Lewis rats; 20 mg/kg i.v.) | average increase in twitch peaks (female Lewis rats; 42 mg/kg i.v.) | average increase in tetanic force (female Lewis rats; 42 mg/kg i.v.)
1 | CC(C)[C@H](Oc1ccc(Br)cc1F)C(=O)O [Compound A-27, (2S)-2-(4-bromo-2-fluorophenoxy)-3-methylbutanoic acid] | 12.2% | 36.4% | can restore force | 46% | 20.2 mV |  |  |  | 
2 | [2H][C@@](CC)(Oc1ccc(Br)cc1)C(=O)O [Compound A-60, (2S)-2-(4-bromophenoxy)(2-^2H)butanoic acid] |  |  | can restore force | 62% | 20.0 mV | 18.5% | 52.7% |  | 
3 | O=C(O)[C@H](CCF)Oc1ccc(Br)cc1 [Compound A-87, (2S)-2-(4-bromophenoxy)-4-fluorobutanoic acid] |  |  | can restore force | 37% | 16.4 mV |  |  | 5.8% | 19.3%
